The data set deals with skin of a subject. Kind of data set: Drug absorption study: diffusion of stained hyaluron from silicone pad into the skin. It counts as in vivo. Particulars: 6 mg powdered hyaluron stained green in adhesive layer; 2 weeks of daily use on skin. As to the method:
FIG. 3A depicts a silicone pad with an adhesive layer. The adhesive layer comprises 6 mg of powdered hyaluron (<20 T Dalton). […] For manufacturing a silicone pad, the adhesive layer was bonded to a silicone body. The silicone pad was applied daily to the skin of a subject for a period of 2 weeks.

On to hyaluron, for which the “concentration of hyaluron in the silicone pad after use (decrease of color)” value is given as “decreases markedly” and the “distribution of hyaluron from the pad” value is “delivered to the skin's lower layers”.

These data come from US20200129412A1, “SILICONE PAD HAVING ACTIVE INGREDIENTS FOR SKIN CARE AND AGAINST SKIN AGING” (Apricot GmbH, priority 2017, published 2020).
